Measurements from US10350272B2, “Calcitonin analogues for treating diseases and disorders” (KeyBioscience AG, priority 2015, dated 2019).
Where no end group is shown, it is not given here.

How the values were obtained:
[1] = test system: liver sections from HFD-fed rats; test: Oil-Red-O staining of frozen liver sections; assay type: in vivo, rat
Method: At termination of the study of Example 2 the rat livers were embedded using snap freezing in OCT, and then sectioned using a cryomicrotome. Sections were prepared from four groups, KBP-042 in HFD rats, KBP-089 in HFD rats, control HFD rats, and a lean rat comparison.
The sections were stained using Oil-Red-O staining. […] The lipid accumulation in pair-fed KBP-089 liver exceeded KBP-089 treated rats with 66.5% (p<0.001) and was not significant different from vehicle (0.6711). Statistical test performed was one-way ANOVA with Dunnet's post test for multiple comparisons. **p<0.01, ***p<0.001.

[2] = amylin dosage 100 μg kg^−1, compared with saline; cited from earlier work
cultured rat hepatocytes = details: cited from earlier work
rats = details: s.c., single dose 1000 mU/rat or 0.5-50 mU/rat over 12 weeks, dose dependently; cited from earlier work

## AcCSNLSTCMLGRLSQDLHRLQTYPKTDVGANAP-NH2 (Ac-CSNLSTCMLGRLSQDLHRLQTYPKTDVGANAP-NH2; ends and bridges not checked) [KBP-089]
[1]; 2.5 μg/kg, p<0.001
  excess of lipid accumulation in pair-fed KBP-089 liver over KBP-089 treated rats (Oil-Red-O): 66.5%
[1]; HFD rats, 2.5 μg/kg daily
  decrease of HFD-induced lipid accumulation in liver compared to vehicle (Oil-Red-O): 155.3%

## amylin (KCNTATCATQRLANFLVRSSNNLGPVLPPTNVGSNTY; ends and bridges not checked; cysteine pairing not given here; UniProt P12969 38-74, looked up) [amylin administered alone in Kusakabe et al (2011), reference compound]
[2]
  tissue triglyceride content: neither L nor A decreased

## salmon calcitonin [synthetic salmon calcitonin]
Cultured rat hepatocytes
  incorporation of acetate into cholesterol and triglycerides: reduced
rats
  serum cholesterol levels: reduced
  serum lipoprotein levels: reduced
  serum triglyceride levels: reduced

B1: leptin (protein, UniProt P50596 22-167, looked up)
Leptin: VPIHKVQDDTKTLIKTIVTRINDISHTQSVSARQRVTGLDFIPGLHPILSLSKMDQTLAVYQQILTSLPSQNVLQIAHDLENLRDLLHLLAFSKSCSLPQTRGLQKPESLDGVLEASLYSTEVVALSRLQGSLQDILQQLDLSPEC
notes: leptin administered alone in Kusakabe et al (2011)
[2]
  tissue triglyceride content: neither L nor A decreased
